Measured values reported in patent US20200032271A1, “COMBINATION THERAPY WITH LIPOSOMAL ANTISENSE OLIGONUCLEOTIDES” (Bio-Path Holdings, Inc., priority 2016, published 2020).
Read-outs that look alike come from different tables or passages of the source. [PEt] = P-ethoxy (ethyl phosphotriester) internucleoside linkage

Columns and labels:
[1] = Plasma pharmacokinetics of Grb2 antisense oligo in patients; settings: plasma
Procedure: Pharmacokinetic (PK) analysis was performed on plasma samples collected from refractory/relapsed patients diagnosed with AML receiving BP1001 (60 mg/m^2)+LDAC or receiving BP1001 (90 mg/m^2)+LDAC.
Blood samples for measurement of Grb2 antisense oligo concentrations were collected from patients in cohorts 7 and 8, at predose, 1, 2, 4, 6, 8, 24, 72 h post start-of-infusion (SOI). Urine samples for measurement of BP1001 concentrations were also collected from patients in cohorts 7 and 8, at start of dose-4 h, 4-8 h postdose, and 8-24 h postdose. PK blood samples were processed to plasma and analyzed using a validated method (Charles River Laboratories, Montreal, Canada) with a lower limit of quantitation (LLOQ; 0.5 ng/mL). Urine samples were analyzed using a validated method (Charles River Laboratories, Montreal, Canada) with a LLOQ of 1.00 ng/mL.
PK parameters were estimated using Phoenix pharmacokinetic software (Certara). A non-compartmental approach consistent with the IV infusion route of administration was used for parameter estimation, using an estimated infusion time of 2.5 h. All parameters were generated from Grb2 antisense oligo individual concentrations in plasma from Day 1 of Cycle 1, whenever practical. […] Parameters were estimated using nominal sampling times relative to the start of infusion. The area under the concentration vs. time curve (AUC) was calculated using the linear trapezoidal method with linear interpolation. The slope of the terminal elimination phase was determined using log linear regression on the unweighted concentration data.

[2] = tested on: BV173 cells; assay: Cell cycle analysis (7-AAD flow cytometry); assay type: cell-based, human
Procedure: Cells were then fixed and permeabilized for 1 h at 4° C. with 1×Fixation/Permeabilization buffer (Ebioscience, San Diego, Calif., USA). After permeabilization, cells were washed and incubated with 7-aminoactinomycin D (7-AAD, Biolegend, San Diego, Calif., USA) in the dark at 4° C. for about 30 min. Flow cytometric data acquisition was acquired using BD FACSDiva™ software (BD Biosciences, San Jose, Calif., USA). The flow cytometer was set to collect 20,000 events. Relative percentages in the different cell cycle phases (sub-G1, G1, S, G2/M) were reported.
[…] Three days later, cells were harvested and processed for flow cytometry.

[3] = tested on: K562 cells
Procedure: (§1) BV173 and K562 cells were seeded at 5 and 15×10^3 cells/well, respectively, in 96-well plates in 0.1 mL of medium. Cells were incubated with BP1001 and/or tyrosine kinase inhibitors for 4 days. The viability of untreated and treated leukemia cells was measured by the CellTiter-Glo® Luminescent Cell Viability Assay (Promega, Madison, Wis., USA). The CellTiter-Glo® Luminescent Cell Viability Assay determines the number of viable cells by quantitating the presence of ATP, an indicator of metabolically active cells.

[4] = tested on: BV173 cells
Procedure: as §1

[5] = tyrosine kinase inhibitor alone or after BP1001 pretreatment (FIG. 9A)
[6] = tyrosine kinase inhibitor alone or followed by BP1001 (FIG. 9B)
[7] = BP1001 (120 μg/mL in the combination) 1 h before 1 nM dasatinib, four days
[8] = BP1001 (120 μg/mL in the combination) 1 day before dasatinib
[9] = dasatinib 1 day, then BP1001 (120 μg/mL in the combination), read 3 days later

With “5′-ATATTTGGCGATGGCTTC-3′ (DNA, all [PEt], methylation of C not given here) [Grb2 antisense oligo]” the Tmax ([1]; 60 mg/m^2 cohort) was 1 h, the Tmax ([1]; 90 mg/m^2 cohort) was 1 h and the “decrease of Vz for the dose increase from 60 to 90 mg/m^2” value [1] was “approximately 1.5 fold”. For the same molecule, the “increase of CL for the dose increase from 60 to 90 mg/m^2” value [1] was “approximately 1.5 fold”.
For `COc1cc(Nc2c(C#N)cnc3cc(OCCCN4CCN(C)CC4)c(OC)cc23)c(Cl)cc1Cl` [bosutinib], the “percentage of cells in sub-G1 phase” value [2, 5] was 34.3% and the “percentage of cells in sub-G1 phase” value [2, 6] was 66.1%.
For `Cc1nc(Nc2ncc(C(=O)Nc3c(C)cccc3Cl)s2)cc(N2CCN(CCO)CC2)n1` [dasatinib], the decrease of viability [3, 7] was 25%, the decrease of viability [3, 8] was 25% and the decrease of viability [3, 9] was 12%. For the same molecule, the decrease of viability [4, 7] was 40%, the decrease of viability [4, 8] was 10% and the decrease of viability [4, 9] was 6%. The “percentage of cells in sub-G1 phase” value ([2]; BP1001 1 day before dasatinib, harvested three days later (FIGS. 8A-D)) was 10.6%, the “percentage of cells in sub-G1 phase” value [2, 5] was 30.7% and the “percentage of cells in sub-G1 phase” value [2, 6] was 64.1%.
For `Cc1cn(-c2cc(NC(=O)c3ccc(C)c(Nc4nccc(-c5cccnc5)n4)c3)cc(C(F)(F)F)c2)cn1` [nilotinib], the “percentage of cells in sub-G1 phase” value [2, 5] was 26.4% and the “percentage of cells in sub-G1 phase” value [2, 6] was 65.0%.
In the case of `Cc1ccc(C(=O)Nc2ccc(CN3CCN(C)CC3)c(C(F)(F)F)c2)cc1C#Cc1cnc2cccnn12` [ponatinib], the “percentage of cells in sub-G1 phase” value [2, 5] is reported as 34.0% and the “percentage of cells in sub-G1 phase” value [2, 6] is reported as 71.1%.
